Data reported in the NIST ThermoML archive (doi:10.1016/j.jct.2008.04.013).
Where “and” joins values, the source holds several entries; their conditions need not be identical. Equal values may be shown once. ± gives the expanded uncertainty stated by the source.

Details: Liquid, Calculated from knudsen effusion weight loss

Cc1ccc(C(=O)O)s1 [5-methyl-2-thiophenecarboxylic acid]
Details | vapor or sublimation pressure
316.29 K | 9e-05 ± 5e-06 kPa and 8.8e-05 ± 4e-06 kPa and 8.9e-05 ± 5e-06 kPa
318.25 K | 0.000113 ± 6e-06 kPa and 0.000112 ± 6e-06 kPa and 0.00011 ± 6e-06 kPa
320.12 K | 0.000139 ± 7e-06 kPa
322.28 K | 0.00018 ± 9e-06 kPa and 0.000183 ± 9e-06 kPa
324.24 K | 0.000229 ± 1.1e-05 kPa and 0.000226 ± 1.1e-05 kPa and 0.000222 ± 1.1e-05 kPa
326.12 K | 0.000273 ± 1.4e-05 kPa and 0.000278 ± 1.4e-05 kPa and 0.000276 ± 1.4e-05 kPa
328.28 K | 0.000341 ± 1.7e-05 kPa and 0.000356 ± 1.8e-05 kPa and 0.000355 ± 1.8e-05 kPa
330.22 K | 0.000441 ± 2.2e-05 kPa and 0.000439 ± 2.2e-05 kPa and 0.000427 ± 2.1e-05 kPa
332.11 K | 0.00054 ± 2.7e-05 kPa and 0.000539 ± 2.7e-05 kPa
334.28 K | 0.0007 ± 3.5e-05 kPa and 0.000697 ± 3.5e-05 kPa and 0.00069 ± 3.5e-05 kPa
336.22 K | 0.000859 ± 4.3e-05 kPa and 0.000855 ± 4.3e-05 kPa and 0.000843 ± 4.2e-05 kPa
338.11 K | 0.001049 ± 0.00011 kPa and 0.001053 ± 0.00011 kPa and 0.001028 ± 0.0001 kPa

Cc1ccsc1C(=O)O [3-methyl-2-thiophenecarboxylic acid]
Details | vapor or sublimation pressure
312.13 K | 0.000104 ± 5e-06 kPa and 0.000102 ± 5e-06 kPa
314.2 K | 0.000129 ± 6e-06 kPa and 0.00013 ± 7e-06 kPa and 0.000126 ± 6e-06 kPa
316.22 K | 0.000164 ± 8e-06 kPa and 0.000162 ± 8e-06 kPa and 0.000159 ± 8e-06 kPa
318.13 K | 0.000205 ± 1e-05 kPa and 0.000204 ± 1e-05 kPa and 0.000209 ± 1e-05 kPa
320.19 K | 0.000264 ± 1.3e-05 kPa and 0.000261 ± 1.3e-05 kPa and 0.000254 ± 1.3e-05 kPa
322.21 K | 0.000323 ± 1.6e-05 kPa and 0.00032 ± 1.6e-05 kPa and 0.000314 ± 1.6e-05 kPa
324.14 K | 0.000412 ± 2.1e-05 kPa and 0.000407 ± 2e-05 kPa and 0.000418 ± 2.1e-05 kPa
326.18 K | 0.000507 ± 2.5e-05 kPa and 0.000503 ± 2.5e-05 kPa
328.21 K | 0.000636 ± 3.2e-05 kPa and 0.00063 ± 3.2e-05 kPa
330.15 K | 0.000798 ± 4e-05 kPa and 0.000786 ± 3.9e-05 kPa and 0.000769 ± 3.9e-05 kPa
332.23 K | 0.000984 ± 4.9e-05 kPa and 0.000972 ± 4.9e-05 kPa and 0.00094 ± 4.7e-05 kPa
334.2 K | 0.001191 ± 0.00012 kPa and 0.001174 ± 0.00012 kPa and 0.001146 ± 0.00012 kPa

CC(=O)c1ccc(C(=O)O)s1 [5-acetyl-2-thiophenecarboxylic acid]
Details | vapor or sublimation pressure
364.15 K | 0.00011 ± 6e-06 kPa and 0.000108 ± 5e-06 kPa and 0.000105 ± 5e-06 kPa
366.18 K | 0.000133 ± 7e-06 kPa and 0.000135 ± 7e-06 kPa and 0.000129 ± 6e-06 kPa
368.18 K | 0.000163 ± 8e-06 kPa and 0.00016 ± 8e-06 kPa
370.15 K | 0.000205 ± 1e-05 kPa and 0.0002 ± 1e-05 kPa and 0.000208 ± 1e-05 kPa
372.17 K | 0.000252 ± 1.3e-05 kPa and 0.00025 ± 1.3e-05 kPa and 0.000244 ± 1.2e-05 kPa
374.17 K | 0.000303 ± 1.5e-05 kPa and 0.000307 ± 1.5e-05 kPa and 0.000298 ± 1.5e-05 kPa
376.15 K | 0.000392 ± 2e-05 kPa and 0.000387 ± 1.9e-05 kPa and 0.000376 ± 1.9e-05 kPa
378.17 K | 0.000471 ± 2.4e-05 kPa and 0.000472 ± 2.4e-05 kPa and 0.000451 ± 2.3e-05 kPa
380.18 K | 0.000578 ± 2.9e-05 kPa and 0.000568 ± 2.8e-05 kPa and 0.000548 ± 2.7e-05 kPa
382.18 K | 0.000707 ± 3.5e-05 kPa and 0.000698 ± 3.5e-05 kPa and 0.000683 ± 3.4e-05 kPa
384.18 K | 0.000819 ± 4.1e-05 kPa and 0.000846 ± 4.2e-05 kPa and 0.000816 ± 4.1e-05 kPa
386.17 K | 0.001019 ± 0.0001 kPa and 0.001018 ± 0.0001 kPa and 0.000988 ± 4.9e-05 kPa
